In US20250375526A1, “IRAK DEGRADERS AND USES THEREOF” (Kymera Therapeutics, Inc., priority 2020, published 2025):

Target: T1, IRAK4 (Homo sapiens, UniProt Q9NWZ3)
T1 construct: endogenous in cells; host or cells: OCI-Ly10
T1 sequence (Q9NWZ3 1-460): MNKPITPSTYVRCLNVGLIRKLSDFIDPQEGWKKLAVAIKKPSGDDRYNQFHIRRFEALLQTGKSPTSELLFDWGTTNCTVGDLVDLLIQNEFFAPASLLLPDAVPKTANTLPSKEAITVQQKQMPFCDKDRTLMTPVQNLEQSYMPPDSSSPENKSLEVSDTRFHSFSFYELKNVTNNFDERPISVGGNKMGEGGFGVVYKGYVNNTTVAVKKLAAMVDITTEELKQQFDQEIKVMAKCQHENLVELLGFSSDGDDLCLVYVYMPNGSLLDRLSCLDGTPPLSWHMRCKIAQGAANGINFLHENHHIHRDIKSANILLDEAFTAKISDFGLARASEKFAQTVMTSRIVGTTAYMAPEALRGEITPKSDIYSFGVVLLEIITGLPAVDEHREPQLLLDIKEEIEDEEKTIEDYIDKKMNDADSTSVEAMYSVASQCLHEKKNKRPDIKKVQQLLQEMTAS
Test: OCI-LY10 IRAK MSD assay DC50 (IRAK4 degradation)
Type: cell-based
Conditions: OCI-Ly10 cells, incubated for 4 hr, concentration of compound required to degrade 50% of protein
Procedure: A MSD assay is run to determine the concentration of compound required to degrade 50% of protein (DC50).
• Compounds were reconstituted to 10 mM in stock solutions. The stock solutions were diluted to 5 mM and 45 μL of each dilution was transferred to a 384 pp-plate. A 3 fold, 8-point serial dilution was performed by transferring 15 μL of compound into 30 μL DMSO using Janus. • 20 nL of each compound were added into each well of a 96-well plate (Corning3799). • OCI-Ly10 cells were seeded into the 96-well plate at 3.0*10e^5 cells/100 μL/well. • The cell plate was shaken at 720 rpm for 5 min and incubated for 4 hr. • 100 μL of cells were transferred into the 96-PCR plate and spun down at high speed for 5 mins. • The supernatant was discarded and 100 μL of RIPA lysis buffer with proteinase inhibitors was added per well. The plate was then sealed and shaken at 600 rpm and 4° C. for about 20 min. • The plate was then spun down at high speed (about 3200 g) for 30 min and then frozen in a −80° C. fridge. • A bare MSD plate (L15XA-3) was coated with 2 μg/mL of capture antibody (mouse Anti-IRAK4 antibody [2H9], ab119942) in PBS to 40 μL/well and incubated overnight at 4° C.
• The MSD coated plate was washed 3× (150 μL/well) with 1×TBST (CST #9997S). • The MSD plate was then blocked with 150 μL of blocking buffer [3% Blocker A (MSD, R93BA-4) in TBST]/well and shaken for 1 hr at RT and 600 rpm. • The MSD plate was washed 3× (150 μL/well) with 1×TBST. The sample RIPA lysates were then added to the MSD plate (50 μL/well) and shaken for 1 hr at RT and 600 rpm. • The MSD plate was washed 3× (150 μL/well) with 1×TBST and the primary detection antibody (Rabbit Anti-IRAK4 antibody [Y279], ab32511) was added to a final concentration of 1 μg/ml with 25 μL/well. The plate was then shaken for 1 hr at RT and 600 rpm. • The MSD plate was washed 3× (150 μL/well) with 1×TBST and the secondary detection antibody, SULFO-TAG anti-species antibody (Anti Rabbit Antibody (R32AB-5) MSD, R32AB-1) was added to a volume of 25 μL/well at a final concentration of 1 μg/ml. The plate was then shaken for 1 hr at RT and 600 rpm. • The MSD plate was then washed 3× (150 μL/well) with 1×TBST. • 1×MSD reading buffer was then added (150 μL/well) and the plate […].
(MSD, R92TC-2) • The MSD instrument was then read.
The remaining activity was calculated following the formula below:
• The DC50 was calculated by fitting the Curve using Xlfit (v5.3.1.3), equation 201: […]
The letter codes for IRAK4 DC50 indicate the concentration of compound required to degrade 50% of protein: A (<0.01 μM), B (0.01-0.1 μM), C (>0.1-0.2 μM), D (>0.2 μM).

| SMILES | DC50 |
| --- | --- |
| COc1cc2nn([C@H]3C[C@H](CN4CCC(c5cccc6c(N7CCC(=O)NC7=O)cncc56)CC4)C3)cc2cc1NC(=O)c1cccc(C(F)(F)F)n1 [I-40] | 10 to 100 nM |
| O=C1CCN(c2cnc3cc(C4CCN(C[C@H]5C[C@H](n6cc7cc(NC(=O)c8cccc(C(F)(F)F)n8)ccc7n6)C5)CC4)ccn23)C(=O)N1 [I-38] | 10 to 100 nM |
| O=C1CCN(c2cncc3c(C4CCN(C[C@H]5CC[C@H](n6cc7cc(NC(=O)c8cccc(C(F)(F)F)n8)ccc7n6)CC5)CC4)cccc23)C(=O)N1 [I-10] | 10 to 100 nM |
| O=C1CCN(c2cnc3c(C4CCN(C[C@H]5CC[C@H](n6cc7cc(NC(=O)c8cccc(C(F)(F)F)n8)ncc7n6)CC5)CC4)cccn23)C(=O)N1 [I-29] | 10 to 100 nM |
| O=C1CCN(c2cncc3cc(C4CCN(C[C@H]5CC[C@H](n6cc7cc(NC(=O)c8cccc(C(F)(F)F)n8)ncc7n6)CC5)CC4)ccc23)C(=O)N1 [I-18] | < 10 nM |
| COc1cc2nn([C@H]3CC[C@H](CN(C)C4CCN(c5cccn6c(N7CCC(=O)NC7=O)cnc56)CC4)CC3)cc2cc1NC(=O)c1cc(F)cc(C(F)(F)F)c1 [I-43] | 10 to 100 nM |
| COc1cc2nn([C@H]3CC[C@H](CN4C[C@@H]5C[C@H]4CN5c4ccn5c(N6CCC(=O)NC6=O)cnc5c4)CC3)cc2cc1NC(=O)c1cccc(C(F)(F)F)n1 [I-52] | 10 to 100 nM |
| COc1cc2nc([C@H]3CC[C@H](CN(C)C4CCN(c5cccn6c(N7CCC(=O)NC7=O)cnc56)CC4)CC3)sc2cc1NC(=O)c1cccc(C(F)(F)F)n1 [I-44] | 10 to 100 nM |
| CN(C[C@H]1CC[C@H](n2cc3cc(NC(=O)c4cccc(C(F)(F)F)n4)ccc3n2)CC1)C1CCN(c2ccn3c(N4CCC(=O)NC4=O)cnc3c2)CC1 [I-35] | < 10 nM |
| COc1cc2nn([C@H]3CC[C@H](CN4CCC(c5ccn6c(N7CCC(=O)NC7=O)cnc6c5)CC4)CC3)cc2cc1NC(=O)c1cccc(C(F)(F)F)n1 [I-36, N-[2-[4-[[4-[3-(2,4-dioxohexahydropyrimidin-1-yl)imidazo[1,2-a]pyridin-7-yl]-1-piperidyl]methyl]cyclohexyl]-6-methoxy-indazol-5-yl]-6-(trifluoromethyl)pyridine-2-carboxamide] | < 10 nM |
| CN(C[C@H]1CC[C@H](n2cc3cc(NC(=O)c4cccc(C(F)(F)F)n4)ncc3n2)CC1)C1CCN(c2cccn3c(N4CCC(=O)NC4=O)cnc23)CC1 [I-30] | 100 to 200 nM |
| O=C1CCN(c2cnc3c(C4CCN(C[C@H]5C[C@H](n6cc7cc(NC(=O)c8cccc(C(F)(F)F)n8)ccc7n6)C5)CC4)cccn23)C(=O)N1 [I-39, N-[2-[3-[[4-[3-(2,4-dioxohexahydropyrimidin-1-yl)imidazo[1,2-a]pyridin-8-yl]-1-piperidyl]methyl]cyclobutyl]indazol-5-yl]-6-(trifluoromethyl)pyridine-2-carboxamide] | > 200 nM |
| O=C1CCN(c2cnc3cc(C4CCN(C[C@H]5CC[C@H](n6cc7cc(NC(=O)c8cccc(C(F)(F)F)n8)ncc7n6)CC5)CC4)ccn23)C(=O)N1 [I-37] | > 200 nM |
| CN(C[C@H]1CC[C@H](n2cc3cc(NC(=O)c4cccc(C(F)(F)F)n4)ccc3n2)CC1)C1CCN(c2ccc3c(N4CCC(=O)NC4=O)cncc3c2)CC1 [I-19] | 10 to 100 nM |
| Cc1cc2nn([C@H]3CC[C@H](CN4CCN(c5cccn6c(N7CCC(=O)NC7=O)cnc56)CC4)CC3)cc2cc1NC(=O)c1cccc(C(F)(F)F)n1 [I-49] | 10 to 100 nM |
| COc1cc2nc([C@H]3CC[C@H](CN4CCN(c5ccn6c(N7CCC(=O)NC7=O)cnc6c5C)CC4)CC3)sc2cc1NC(=O)c1cccc(C(F)(F)F)n1 [I-50] | 10 to 100 nM |
| COc1cc2nn([C@H]3CC[C@H](CN4C[C@H]5C[C@@H]4CN5c4cccn5c(N6CCC(=O)NC6=O)cnc45)CC3)cc2cc1NC(=O)c1cccc(C(F)(F)F)n1 [I-55] | 10 to 100 nM |
| COc1cc2nc([C@H]3CC[C@H](CN4CCC(c5cc(OC)c6ncc(N7CCC(=O)NC7=O)n6c5)CC4)CC3)sc2cc1NC(=O)c1cccc(C(F)(F)F)n1 [I-58] | > 200 nM |
| COc1cc2nn([C@H]3CC[C@H](CN4C5CCC4CN(c4cccn6c(N7CCC(=O)NC7=O)cnc46)C5)CC3)cc2cc1NC(=O)c1cccc(C(F)(F)F)n1 [I-53] | < 10 nM |

The next lines start with the values.

| DC50 | SMILES |
| --- | --- |
| 100 to 200 nM | COc1cc2nn([C@H]3CC[C@H](CN4CCC(c5cccn6c(N7CCC(=O)NC7=O)cnc56)CC4)CC3)cc2cc1NC(=O)c1cncc(C#N)c1 [I-83] |
| 10 to 100 nM | CC(C)Nc1cc(-n2ccc3cc(C#N)cnc32)ncc1C(=O)N[C@H]1CC[C@H](CN2CCC(c3cccn4c(N5CCC(=O)NC5=O)cnc34)CC2)CC1 [I-76] |
| < 10 nM | COc1cc2nn([C@H]3CC[C@H](CN4CCN(c5ccn6c(N7CCC(=O)NC7=O)cnc6c5)CC4)CC3)cc2cc1NC(=O)c1cccc(C(F)(F)F)n1 [I-68] |
| 10 to 100 nM | COc1cc2nn([C@H]3CC[C@H](CN4CCC(c5ccn6c(N7CCC(=O)NC7=O)cnc6c5)CC4)CC3)cc2cc1NC(=O)c1cc(F)cc(C(F)(F)F)c1 [I-81] |
| 10 to 100 nM | COc1cc2nn([C@H]3CC[C@H](CN(C)C4CCN(c5ccn6c(N7CCC(=O)NC7=O)cnc6c5)CC4)CC3)cc2cc1NC(=O)c1cncc(Cl)c1 [I-87] |
| < 10 nM | O=C1CCN(c2cnc3cc(C#CCN4CCN(C[C@H]5CC[C@H](n6cc(NC(=O)c7cnn8ccc(N9C[C@H]%10C[C@@H]9CO%10)nc78)c(C(F)F)n6)CC5)CC4)ccn23)C(=O)N1 [I-75] |
| < 10 nM | N#Cc1cc2nn([C@H]3CC[C@H](CN4CCC(c5cccn6c(N7CCC(=O)NC7=O)cnc56)CC4)CC3)cc2cc1NC(=O)c1cccc(C(F)(F)F)n1 [I-67] |
| 10 to 100 nM | N#Cc1cnc2c(C(=O)Nc3ccc4nn([C@H]5CC[C@H](CN6CCC(c7cccn8c(N9CCC(=O)NC9=O)cnc78)CC6)CC5)cc4c3)cnn2c1 [I-65, 6-Cyano-N-[2-[4-[[4-[3-(2,4-dioxohexahydropyrimidin-1-yl)imidazo[1,2-a]pyridin-8-yl]-1-piperidyl]methyl]cyclohexyl]indazol-5-yl]pyrazolo[1,5-a]pyrimidine-3-carboxamide] |
| < 10 nM | O=C1CCN(c2cnc3c(C#CCN4CCN(C[C@H]5CC[C@H](n6cc(NC(=O)c7cnn8ccc(N9C[C@H]%10C[C@@H]9CO%10)nc78)c(C(F)F)n6)CC5)CC4)cccn23)C(=O)N1 [I-60] |
| 10 to 100 nM | CC(C)Nc1cc(-n2ccc3cc(C#N)cnc32)ncc1C(=O)N[C@H]1CC[C@H](CN2CCC(c3ccn4c(N5CCC(=O)NC5=O)cnc4c3)CC2)CC1 [I-77] |
| 10 to 100 nM | COc1cc2nc([C@H]3CC[C@H](CN4CCC(c5ccn6c(N7CCC(=O)NC7=O)cnc6c5)CC4)CC3)sc2cc1NC(=O)c1cccc(C(F)(F)F)n1 [I-78] |
| 10 to 100 nM | COc1cc2nn([C@H]3CC[C@H](CN4CCC(c5cccn6c(N7CCC(=O)NC7=O)cnc56)CC4)CC3)cc2cc1NC(=O)c1cc(F)cc(C(F)(F)F)c1 [I-82] |
| > 200 nM | COc1cc2nn([C@H]3CC[C@H](CN4CCC(c5ccn6c(N7CCC(=O)NC7=O)cnc6c5)CC4)CC3)cc2cc1NC(=O)c1cncc(C#N)c1 [I-84] |
| 10 to 100 nM | CC(C)Nc1cc(-c2ccc3cc(C#N)cnn23)ncc1C(=O)N[C@H]1CC[C@H](CN2CCC(c3ccn4c(N5CCC(=O)NC5=O)cnc4c3)CC2)CC1 [I-74] |
| < 10 nM | C[C@H]1CN(C[C@H]2CC[C@H](n3cc(NC(=O)c4cnn5ccc(N6C[C@H]7C[C@@H]6CO7)nc45)c(C(F)F)n3)CC2)CC[C@@H]1OCC#Cc1cccn2c(N3CCC(=O)NC3=O)cnc12 [I-61] |
| 10 to 100 nM | CC(C)Nc1cc(-c2ccc3cc(C#N)cnn23)ncc1C(=O)N[C@H]1CC[C@H](CN2CCC(c3cccn4c(N5CCC(=O)NC5=O)cnc34)CC2)CC1 [I-73] |
